Data: US8962627B2, “Oxime derivatives and their use as allosteric modulators of metabotropic glutamate receptors” (Prestwick Chemical, Inc., priority 2009, dated 2015)

Legend:
[1] = molecular target: T1, human mGluR4 transiently over-expressed in HEK-293 cells (Homo sapiens, UniProt Q14833); assay: Human mGluR4 positive allosteric modulator evaluation using Ca++ functional assay; assay type: cell-based; conditions: for EC50: HEK-293 cells co-transfected with hmGluR4 and chimeric G protein, EC10 glutamate, intracellular calcium (Fluo4AM), read-out: mean EC50 of agonist/positive allosteric modulator activity on mGluR4
T1 construct: expressed in transfected cells; host or cells: HEK-293 cells, transient co-transfection by electroporation
Summary of the method: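 HEK-293 cells transiently co-transfected with hmGluR4 and a chimeric G protein, loaded with Fluo4AM; Ca2+ fluorescence read 485/525 nm. Compound alone read 60 s, then EC10 glutamate added and read 60 s more. EC50 fitted from 6–9 concentrations, duplicate, two independent runs.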

T1 sequence (Q14833 33-912): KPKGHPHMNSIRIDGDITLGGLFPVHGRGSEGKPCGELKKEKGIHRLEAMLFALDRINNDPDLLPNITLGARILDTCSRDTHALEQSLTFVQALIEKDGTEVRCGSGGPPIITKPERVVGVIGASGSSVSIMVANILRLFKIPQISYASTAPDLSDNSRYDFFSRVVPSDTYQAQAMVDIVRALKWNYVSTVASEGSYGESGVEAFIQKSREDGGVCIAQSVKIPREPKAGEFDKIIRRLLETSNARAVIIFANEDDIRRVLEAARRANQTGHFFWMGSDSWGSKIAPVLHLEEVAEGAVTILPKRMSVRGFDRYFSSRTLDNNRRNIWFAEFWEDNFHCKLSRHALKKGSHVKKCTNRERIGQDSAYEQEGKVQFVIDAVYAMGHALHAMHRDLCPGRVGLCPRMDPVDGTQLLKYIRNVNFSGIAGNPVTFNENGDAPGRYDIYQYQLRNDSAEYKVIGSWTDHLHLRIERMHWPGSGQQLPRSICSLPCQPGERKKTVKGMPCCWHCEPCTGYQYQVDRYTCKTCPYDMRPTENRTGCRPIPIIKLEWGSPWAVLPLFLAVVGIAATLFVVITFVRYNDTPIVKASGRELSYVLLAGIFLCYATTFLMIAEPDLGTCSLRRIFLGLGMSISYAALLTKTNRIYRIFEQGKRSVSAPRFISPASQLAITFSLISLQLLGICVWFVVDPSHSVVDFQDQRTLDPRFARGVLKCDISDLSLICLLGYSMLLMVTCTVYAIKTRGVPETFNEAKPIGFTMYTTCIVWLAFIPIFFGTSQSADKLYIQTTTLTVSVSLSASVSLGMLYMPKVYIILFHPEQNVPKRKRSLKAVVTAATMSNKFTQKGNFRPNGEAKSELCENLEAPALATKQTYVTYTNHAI

| EC50 [1] [nM] | melting point | PAM activity on mGluR4 ([1]; up to 100 μM) | SMILES |
| --- | --- | --- | --- |
| < 1000 | 155 to 160 °C | – | COCCOc1cccc(C#Cc2ccc3c(=NO)cc(-c4cc5ccccc5cn4)oc3c2)c1 (mixture of isomers) [Example 53, 2-Isoquinolin-3-yl-7-[3-(2-methoxy-ethoxy)-phenylethynyl]-chromen-4-one oxime] |
| < 5000 | > 230 °C (dec.) | – | CN1CCN(CCOc2ccc3oc(-c4cc5cccn5cn4)cc(=NO)c3c2)CC1.Cl.Cl [Example 93, 6-[2-(4-methyl-piperazin-1-yl)-ethoxy]-2-pyrrolo[1,2-c]pyrimidin-3-yl-chromen-4-one oxime, dihydrochloride] |
| < 5000 | > 210 °C (dec.) | – | Cl.ON=c1cc(-c2cc3cccn3cn2)oc2ccc(CNCc3ccc(F)cc3)cc12 [Example 144, 6-[(4-Fluoro-benzylamino)-methyl]-2-pyrrolo[1,2-c]pyrimidin-3-yl-chromen-4-one oxime hydrochloride] |
| < 1000 | 238 to 240 °C | – | Cl.ON=c1cc(-c2cn3cccc3cn2)oc2ccc(OCCn3ccnc3)cc12 [Example 125, 6-(2-Imidazol-1-yl-ethoxy)-2-pyrrolo[1,2-a]pyrazin-3-yl-chromen-4-one oxime, hydrochloride] |
| – | 232 to 235 °C | no PAM activity | ON=c1cc(-c2ccc3ccccc3n2)oc2ccccc12 [Example 79, 2-Quinolin-2-yl-chromen-4-one oxime] |
| < 1000 | 243 to 245 °C | – | ON=c1cc(-c2cc3ccsc3cn2)oc2ccccc12 (mixture of isomers) [Example 69, 2-Thieno[2,3-c]pyridin-5-yl-chromen-4-one oxime] |
| < 5000 | > 210 °C (dec.) | – | C=CC#Cc1ccc2c(=NO)cc(-c3cc4ccccc4cn3)oc2c1 (mixture of isomers) [Example 55, 7-but-3-en-1-ynyl-2-Isoquinolin-3-yl-chromen-4-one oxime] |
| < 1000 | 155 to 160 °C | – | COCCN(CCOC)CCOc1ccc2oc(-c3cc4cccn4cn3)cc(=NO)c2c1.Cl [Example 104, 6-(2-[bis-(2-methoxy-ethyl)-amino]-ethoxy)-2-pyrrolo[1,2-c]pyrimidin-3-yl-chromen-4-one oxime, hydrochloride] |
| < 1000 | 225 to 230 °C | – | Cl.ON=c1cc(-c2cc3sccc3cn2)oc2ccc(OCCN3CCC(F)(F)CC3)cc12 [Example 128, 6-[2-(4,4-Difluoro-piperidin-1-yl)-ethoxy]-2-thieno[3,2-c]pyridin-6-yl-chromen-4-one oxime, hydrochloride] |
| < 1000 | 190 to 195 °C | – | Cl.ON=c1cc(-c2cc3cccn3cn2)oc2ccc(OCCN3CCCC(F)(F)C3)cc12 [Example 114, 6-[2-(3,3-difluoro-piperidin-1-yl)-ethoxy]-2-pyrrolo[1,2-c]pyrimidin-3-yl-chromen-4-one oxime, hydrochloride] |
| < 1000 | 217 to 218 °C | – | ON=c1cc(-c2cc3cccn3cn2)oc2ccc(OCCc3cccc(C(F)(F)F)c3)cc12 [Example 141, 2-Pyrrolo[1,2-c]pyrimidin-3-yl-6-[2-(3-trifluoromethyl-phenyl)-ethoxy]-chromen-4-one oxime] |
| < 5000 | 273 to 276 °C | – | ON=c1cc(-c2cc3ccccc3cn2)oc2cc(/C=C/c3ccccc3)ccc12 (mixture of isomers) [Example 21, 2-isoquinolin-3-yl-7-((E)-styryl)-chromen-4-one oxime] |
| < 1000 | > 230 °C (dec.) | – | Cl.ON=c1cc(-c2cc3cccn3cn2)oc2ccc(OCCN3CCC(F)(F)C3)cc12 [Example 119, 6-[2-(3,3-difluoro-pyrrolidin-1-yl)-ethoxy]-2-pyrrolo[1,2-c]pyrimidin-3-yl-chromen-4-one oxime, hydrochloride] |
| < 5000 | 268 to 272 °C | – | CN(C(=O)COc1ccc2oc(-c3cc4cccn4cn3)cc(=NO)c2c1)c1ccc(F)cc1 [Example 151, N-(4-Fluoro-phenyl)-2-{4-hydroxyimino-2-pyrrolo[1,2-c]pyrimidin-3-yl-4H-chromen-6-yloxy}-N-methyl-acetamide] |
| < 1000 | 248 to 250 °C | – | ON=c1cc(-c2cn3cccc3cn2)oc2ccc(OCCc3ccc(F)cc3)cc12 [Example 126, 6-[2-(4-Fluoro-phenyl)-ethoxy]-2-pyrrolo[1,2-a]pyrazin-3-yl-chromen-4-one oxime] |
| < 1000 | 260 to 264 °C | – | Cc1ccc2oc(-c3cc4ccccc4cn3)cc(=NO)c2c1 (mixture of isomers) [Example 5, 2-isoquinolin-3-yl-6-methyl-chromen-4-one oxime] |
| < 1000 | 240 °C (dec.) | – | Cl.ON=c1cc(-c2cc3cccn3cn2)oc2ccc(OCCN3CCCOCC3)cc12 [Example 117, 6-(2-[1,4]oxazepan-4-yl-ethoxy)-2-pyrrolo[1,2-c]pyrimidin-3-yl-chromen-4-one oxime, hydrochloride] |

| EC50 [1] [nM] | melting point | PAM activity on mGluR4 ([1]; up to 100 μM) | SMILES |
| --- | --- | --- | --- |
| < 5000 | > 255 °C (dec.) | – | Cl.ON=c1cc(-c2cc3cccn3cn2)oc2ccc(OCCN3CCCCC3)cc12 [Example 88, 6-(2-Piperidin-1-yl-ethoxy)-2-pyrrolo[1,2-c]pyrimidin-3-yl-chromen-4-one oxime, hydrochloride] |
| < 1000 | 218 to 220 °C | – | Cl.ON=c1cc(-c2cc3sccc3cn2)oc2ccc(OCCn3ccnc3)cc12 [Example 129, 6-(2-imidazol-1-yl-ethoxy)2-thieno[3,2-c]pyridin-6-yl-chromen-4-one oxime, hydrochloride] |
| < 1000 | 248 to 251 °C | – | COc1cccc(C#Cc2ccc3c(=NO)cc(-c4cc5ccccc5cn4)oc3c2)c1 (mixture of isomers) [Example 28, 2-isoquinolin-3-yl-7-(3-methoxyphenyl)ethynyl-chromen-4-one oxime] |
| < 1000 | 202 to 205 °C | – | ON=c1cc(-c2cc3cccn3cn2)oc2ccc(OCCCOc3cccnc3)cc12 [Example 149, 6-[3-(Pyridin-3-yloxy)-propoxy]-2-pyrrolo[1,2-c]pyrimidin-3-yl-chromen-4-one oxime] |
| < 1000 | 172 to 173 °C | – | COCCCc1ccc2oc(-c3cc4cccn4cn3)cc(=NO)c2c1 (mixture of isomers) [Example 83, 6-(3-Methoxy-propyl)-2-pyrrolo[1,2-c]pyrimidin-3-yl-chromen-4-one oxime] |
| < 5000 | 255 to 259 °C | – | ON=c1cc(-c2cc3ccccc3cn2)oc2cc(C#Cc3cccc(O)c3)ccc12 (mixture of isomers) [Example 30, 7-(3-hydroxyphenyl)ethynyl-2-isoquinolin-3-yl-chromen-4-one oxime] |
| < 1000 | > 230 °C (dec.) | – | Cl.ON=c1cc(-c2cc3cccn3cn2)oc2ccc(OCCN3CCC(O)C3)cc12 (stereo not drawn) [Example 98, 6-[2-(3-hydroxy-pyrrolidin-1-yl)-ethoxy]-2-pyrrolo[1,2-c]pyrimidin-3-yl-chromen-4-one oxime, hydrochloride] |
| < 5000 | 279 to 283 °C | – | ON=c1cc(-c2cc3ccccc3cn2)oc2cc(Br)ccc12 (mixture of isomers) [Example 2, 7-bromo-2-isoquinolin-3-yl-chromen-4-one oxime] |
| < 1000 | 210 °C (dec.) | – | COC[C@H]1CCCN1CCOc1ccc2oc(-c3cc4cccn4cn3)cc(=NO)c2c1.Cl [Example 97, 6-[2-((R)-2-methoxymethylpyrrolidin-1-yl)-ethoxy]-2-pyrrolo[1,2-c]pyrimidin-3-yl-chromen-4-one oxime, hydrochloride] |
| < 5000 | 250 to 255 °C | – | COc1ccc2oc(-c3cc4ccccc4cn3)cc(=NO)c2c1 (mixture of isomers) [Example 42, 2-isoquinolin-3-yl-6-methoxy-chromen-4-one oxime] |
| < 1000 | 170 to 175 °C | – | ON=c1cc(-c2cc3cccn3cn2)oc2ccc(OCCOc3cccnc3)cc12 [Example 148, 6-[2-(Pyridin-3-yloxy)-ethoxy]-2-pyrrolo[1,2-c]pyrimidin-3-yl-chromen-4-one oxime] |
| < 1000 | > 220 °C (dec.) | – | Cl.ON=c1cc(-c2cc3cccn3cn2)oc2ccc(OCCCN3CCOCC3)cc12 [Example 101, 6-(3-morpholin-4-yl-propoxy)-2-pyrrolo[1,2-c]pyrimidin-3-yl-chromen-4-one oxime, hydrochloride] |
| < 5000 | 279 to 281 °C | – | N#Cc1ccc2c(=NO)cc(-c3cc4ccccc4cn3)oc2c1 [Example 58, 7-cyano-2-isoquinolin-3-yl-chromen-4-one oxime] |
| < 1000 | 236 to 238 °C | – | Cl.ON=c1cc(-c2cc3sccc3cn2)oc2ccc(OCCCc3ccncc3)cc12 [Example 134, 6-(3-Pyridin-4-yl-propoxy)-2-thieno[3,2-c]pyridin-6-yl-chromen-4-one oxime, hydrochloride] |
| < 5000 | 278 to 280 °C | – | ON=c1cc(-c2cc3ccccc3cn2)oc2ccc(F)cc12 (mixture of isomers) [Example 6, 6-fluoro-2-isoquinolin-3-yl-chromen-4-one oxime] |
| < 5000 | 255 to 257 °C | – | ON=c1cc(-c2cc3cccn3cn2)oc2cccc(C(F)(F)F)c12 [Example 153, 2-Pyrrolo[1,2-c]pyrimidin-3-yl-5-trifluoromethyl-chromen-4-one oxime] |
